From patent publication US7541358B2, “1-aryl-or 1-alkylsulfonylbenzazole derivatives as 5-hydroxytryptamine-6 ligands” (Wyeth, priority 2001, dated 2009) come the findings set out here.

For data set [1], the target named is T1, human cloned 5-HT6 receptors (Homo sapiens, UniProt P50406).
T1 construct: expressed in transfected cells; host or cells: Hela cells
The data set is described as follows: 5-HT6 binding affinity ([3H]-LSD displacement, membranes of Hela cells expressing human cloned 5-HT6 receptors). As to conditions: [3H]-LSD 3.0 nM, Hela cell membranes; for inhibition at 1 µM / % inhibition at 1 μM concentration: 1 μM test compound; for inhibition at 1 µM: read-out: % inhibition at 1 μM concentration; for Ki: 120 min at room temperature. On the procedure:
The affinity of test compounds for the serotonin 5-HT6 receptor is evaluated in the following manner. Cultured Hela cells expressing human cloned 5-HT6 receptors are harvested and centrifuged at low speed (1,000×g) for 10.0 min to remove the culture media. The harvested cells are suspended in half volume of fresh physiological phosphate buffered saline solution and recentrifuged at the same speed. This operation is repeated. The collected cells are then homogenized in ten volumes of 50 mM Tris.HCl (pH 7.4) and 0.5 mM EDTA. The homogenate is centrifuged at 40,000×g for 30.0 min and the precipitate is collected. The obtained pellet is resuspended in 10 volumes of Tris.HCl buffer and recentrifuged at the same speed. The final pellet is suspended in a small volume of Tris.HCl buffer and the tissue protein content is determined in aliquots of 10-25 μl volumes. Bovine Serum Albumin is used as the standard in the protein determination according to the method described in Lowry et al., J. Biol. Chem., 193:265 (1951). The volume of the suspended cell membranes is adjusted to give a tissue protein concentration of 1.0 mg/ml of suspension. The prepared membrane suspension (10 times concentrated) is aliquoted in 1.0 ml volumes and stored at −70° C. until used in subsequent binding experiments.
Binding experiments are performed in a 96 well microtiter plate format, in a total volume of 200 μl. […] The test compounds are added in 20.0 μl volume.
The reaction is allowed to proceed in the dark for 120 min at room temperature, at which time, the bound ligand-receptor complex is filtered off on a 96 well unifilter with a Packard Filtermate® 196Harvester. The bound complex caught on the filter disk is allowed to air dry and the radioactivity is measured in a Packard TopCount® equipped with six photomultiplier detectors, after the addition of 40.0 μl Microscint®-20 scintillant to each shallow well. The unifilter plate is heat-sealed and counted in a PackardTopCount® with a tritium efficiency of 31.0%.
Binding in the presence of varying concentrations of test compound is expressed as a percentage of specific binding in the absence of test compound. The results are plotted a log % bound versus log concentration of test compound. […] A linear regression line of data points is plotted, from which the IC50 value is determined and the Ki value is determined based upon the following equation: Ki=IC50/(1+L/KD) where L is the concentration of the radioactive ligand used and KD is the dissociation constant of the ligand for the receptor, both expressed in nM.

T1 sequence (P50406 whole entry): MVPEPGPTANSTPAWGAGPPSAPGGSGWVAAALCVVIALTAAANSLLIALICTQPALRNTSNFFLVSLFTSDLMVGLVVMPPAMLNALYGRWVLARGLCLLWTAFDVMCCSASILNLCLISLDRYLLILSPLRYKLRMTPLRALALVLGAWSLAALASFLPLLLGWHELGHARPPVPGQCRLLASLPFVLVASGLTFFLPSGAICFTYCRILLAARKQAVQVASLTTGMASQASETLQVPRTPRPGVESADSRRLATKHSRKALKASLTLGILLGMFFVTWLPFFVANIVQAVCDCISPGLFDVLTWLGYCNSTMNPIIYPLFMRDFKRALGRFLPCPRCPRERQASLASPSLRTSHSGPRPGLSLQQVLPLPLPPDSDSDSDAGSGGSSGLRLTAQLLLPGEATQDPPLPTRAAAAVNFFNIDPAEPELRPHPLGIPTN

With `O=S(=O)(c1ccc(Cl)s1)n1ccc2cc(OCCN3CCCCC3)ccc21` [Example 11, 1-[(5-chlorothien-2-yl)sulfonyl]-5-[2-(piperidin-1-yl)ethoxy]-1H-indole], the melting point was 222 to 224 °C. The inhibition at 1 µM in data set [1] stood at 51%.

Regarding `O=S(=O)(c1cc(Cl)c(Cl)s1)n1ccc2cc(OCCN3CCCCC3)ccc21` [Example 12, 1-[(4,5-dichlorothien-2-yl)sulfonyl]-5-[2-(piperidin-1-yl)ethoxy]-1H-indole], the melting point fell in the range of 222 to 224 °C. Besides, the inhibition at 1 µM in data set [1] is 65%. For the compound `O=S(=O)(c1c(Cl)nc2sccn12)n1ccc2cc(OCCN3CCCCC3)ccc21` [Example 13, 1-[(6-chloroimidazo[2,1-b][1,3]thiazol-5-yl)sulfonyl]-5-[2-(piperidin-1-yl)ethoxy]-1H-indole], the melting point was found to be 60 °C. Further, in data set [1], the Ki came out at 22 nM. Regarding `Cc1c(S(=O)(=O)n2ccc3cc(OCCN4CCCCC4)ccc32)sc2ccc(Cl)cc12` [Example 14, 1-[(5-chloro-3-methyl-1-benzothien-2-yl)sulfonyl]-5-[2-(piperidin-1-yl)ethoxy]-1H-indole], the inhibition at 1 µM in data set [1] amounted to 65%.

Compound `Cc1c(S(=O)(=O)n2ccc3c(OCCN4CCCCC4)cccc32)sc2ccc(Cl)cc12` [Example 15, 1-[(5-chloro-3-methyl-1-benzothien-2-yl)sulfonyl]-4-[2-(piperidin-1-yl)ethoxy]-1H-indole] had a melting point of 217 to 219 °C. The compound also returned a Ki in data set [1] of 71 nM.

For `O=[N+]([O-])c1ccc(S(=O)(=O)n2ncc3c(OCCN4CCCCC4)cccc32)cc1` [Example 20, 1-[(4-nitrophenyl)sulfonyl]-4-[2-(l-piperidinyl)ethoxy]1H-indazole], in data set [1], the “% inhibition at 1 μM concentration” value is 76% @ 1 μM*. `O=S(=O)(c1c(Cl)nc2sccn12)n1ncc2c(OCCN3CCCCC3)cccc21` [Example 22, 1-[(6-chloroimidazo[2,1-b][1,3]thiazol-5-yl)sulfonyl]-4-[2-(piperidin-1-yl)ethoxy]-1H-indazole] displayed a melting point of 88 to 90 °C. In addition, the inhibition constant Ki in data set [1] turned out to be 2 nM. For the compound `O=S(=O)(c1cc(Cl)c(Cl)s1)n1ncc2c(OCCN3CCCCC3)cccc21` [Example 23, 1-[(4,5-dichlorothien-2-yl)sulfonyl]-4-[2-(piperidin-1-yl)ethoxy]-1H-indazole], the melting point lay within 214 to 216 °C. The affinity in data set [1], expressed as Ki, was 18 nM. On the same counts, the results for `O=S(=O)(c1ccc(Cl)s1)n1ncc2c(OCCN3CCCCC3)cccc21` [Example 24, 1-[(5-chlorothien-2-yl)sulfonyl]-4-[2-(piperidin-1-yl)ethoxy]-1H-indazole] are 187 to 189 °C and 12 nM. On to `O=S(=O)(c1cccs1)n1ncc2c(OCCN3CCCCC3)cccc21` [Example 25, 4-[2-(piperidin-1-yl)ethoxy]-1-(thien-2-ylsulfonyl)-1H-indazole], for which the melting point was 172 to 175 °C. The same compound returned an inhibition constant (Ki) in data set [1] of 8 nM. On the same counts, the results for `Cc1c(S(=O)(=O)n2ncc3c(OCCN4CCCCC4)cccc32)sc2ccc(Cl)cc12` [Example 26, 1-[(5-chloro-3-methyl-1-benzothien-2-yl)sulfonyl]-4-[2-(piperidin-1-yl)ethoxy]-1H-indazole] are 216 to 218 °C and 53 nM. For “N,N-Bis(3-methoxybenzyl)-N-(2-{[1-(phenylsulfonyl)-1H-indol-4-yl]oxy}ethylamine [Example 7a]”, the “% inhibition at 1 μM concentration” value in data set [1] came out at 94% @ 1 μM*. Same read-out and setting: next, “N-(3-methoxybenzyl)-N-(2-{[1-(phenylsulfonyl)-1H-indol-4-yl]oxy}ethylamine hydrochloride [Example 7b]”: 95% @ 1 μM*.
